Test results: patent US20250188059A1, “NOVEL COMPOUND AND USE THEREOF FOR INHIBITING CHECKPOINT KINASE 2” (ARUM THERAPEUTICS INC, priority 2022, published 2025)
Like-named read-outs stand apart in the source and are kept apart here.

Experiments:
Chk1 kinase = Chk1 kinase (Homo sapiens (Human), UniProt O14757); assay: Chk1 kinase inhibitory activity (LanthaScreen TR-FRET); format: biochemical; details: graded
Procedure: (§1) The compounds of Examples 1 to 66 were diluted at various concentrations and transferred to a 384-well plate by 5 μl, and 10 μl of a mixed solution (2×) of Chk1 kinase (Thermo, P3040) or Chk2 kinase (Thermo, PV3367) and a substrate (Thermo, PV3508) was added to wells treated with the compounds. 5 μl of an ATP solution at a 4× concentration was added to the test well and reacted at room temperature for 1 hour. 20 μl of LanthaScreen Terbium-CREB p-Ser 133 antibody (Thermo, PV3542) was added to the reaction well and incubated at room temperature for 30 minutes. Conversion data was measured by an EnVision 2014 multi label reader (PerkinElmer). The activity for each concentration was determined by the ratio (FRET ratio=FR) of the value obtained by dividing the value at 520 nm by the value at 490 nm among the emission wavelength values for each wavelength (Em520/Em490). The results obtained for each concentration of the compounds were the average values obtained in two wells, and the IC50 values of the compounds were calculated using PRIZM software for analysis of the results. IC50 in Table 7 was graded as follows.

Chk2 kinase = Chk2 kinase (Homo sapiens (Human), UniProt O96017); assay: Chk2 kinase inhibitory activity (LanthaScreen TR-FRET); format: biochemical; details: graded
Chain of Chk2 kinase (O96017 whole entry): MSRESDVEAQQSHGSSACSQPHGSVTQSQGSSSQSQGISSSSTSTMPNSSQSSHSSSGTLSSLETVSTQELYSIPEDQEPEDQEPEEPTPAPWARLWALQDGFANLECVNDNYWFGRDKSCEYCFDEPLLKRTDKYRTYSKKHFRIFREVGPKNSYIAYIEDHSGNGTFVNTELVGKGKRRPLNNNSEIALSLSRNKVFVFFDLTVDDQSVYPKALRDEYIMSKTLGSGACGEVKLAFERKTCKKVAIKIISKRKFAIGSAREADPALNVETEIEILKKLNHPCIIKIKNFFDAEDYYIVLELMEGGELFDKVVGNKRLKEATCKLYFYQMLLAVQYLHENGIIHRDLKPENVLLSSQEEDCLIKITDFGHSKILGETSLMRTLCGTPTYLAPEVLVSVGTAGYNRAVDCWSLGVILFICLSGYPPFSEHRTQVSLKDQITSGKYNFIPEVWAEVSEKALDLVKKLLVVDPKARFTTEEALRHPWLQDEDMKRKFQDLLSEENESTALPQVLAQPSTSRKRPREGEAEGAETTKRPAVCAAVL
Procedure: as §1

[1] = tested on: human breast cancer cell line MCF-7; assay: Cancer cell growth inhibition test (CellTiter-Glo); format: cell-based; details: MCF-7, 72 hours
Procedure: The human breast cancer cell line MCF-7 was treated with trypsin and harvested. The number of cells was counted, and about 3000 cells/80 μl per well were inoculated into a 96 well plate (Corning) and then incubated in a 37° C. incubator for 24 hours. Thereafter, the example compounds were diluted in a culture solution at various concentrations, and each well was treated with 20 μl and stored in a cell culture incubator for 72 hours. In the case of the group administered in combination, the example compounds and cisplatin or doxorubicin were diluted in a culture solution at various concentrations, and each well was treated with 20 μl. After 72 hours, each well was treated with 30 μl of CellTiter-Glo solution (Promega), and the luminescence was read on a Victor3 multi label reader (PerkinElmer).
Relative viability (%)=(value of each test well/value of well treated with DMSO alone)×100
The results obtained for each concentration for each example compound were the average values obtained from three wells, and PRIZM software was used for analysis of the results.

[2] = Homo sapiens, MCF7, 72 h, graded, read-out: Celltiter glo analysis (IC50)
[3] = graded, read-out: Celltiter glo analysis (IC50)
[4] = Homo sapiens, MCF7, 72 h, alone, read-out: Administered alone (IC50)
[5] = combination with cisplatin, read-out: Administered in combination with cisplatin (IC50)
[6] = combination with doxorubicin, read-out: Administered in combination with doxorubicin (IC50)

Chain of Chk1 kinase (O14757 whole entry): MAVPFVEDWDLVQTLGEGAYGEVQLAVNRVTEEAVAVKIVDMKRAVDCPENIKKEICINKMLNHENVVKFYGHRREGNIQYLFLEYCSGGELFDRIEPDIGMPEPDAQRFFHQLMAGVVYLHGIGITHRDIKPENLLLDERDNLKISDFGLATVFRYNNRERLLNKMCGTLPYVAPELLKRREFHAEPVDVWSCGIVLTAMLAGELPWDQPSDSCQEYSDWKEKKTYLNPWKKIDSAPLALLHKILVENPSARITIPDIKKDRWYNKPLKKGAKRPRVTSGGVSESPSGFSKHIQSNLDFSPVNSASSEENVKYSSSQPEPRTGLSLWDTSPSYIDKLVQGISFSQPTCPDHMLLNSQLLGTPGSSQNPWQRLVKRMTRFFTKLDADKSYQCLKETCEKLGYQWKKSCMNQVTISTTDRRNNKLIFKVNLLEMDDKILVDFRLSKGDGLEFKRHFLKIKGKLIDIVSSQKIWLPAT

## Cn1cc(-c2cccc(-c3cnc(N)c(C(=O)NC4CCC5(CC5)NC4)n3)c2)cn1 (racemic) [Example 41, 3-amino-6-(3-(1-methyl-1H-pyrazol-4-yl)phenyl)-N-(4-azaspiro[2.5]octan-6-yl)pyrazine-2-carboxamide]
Chk1 kinase
  IC50: 10 to 100 nM
Chk2 kinase
  IC50: ≤ 10 nM
[1]; [2]
  IC50: > 100000 nM

## CC1(C)Cc2c(-c3cccc(-c4cnc(N)c(C(=O)N[C@H]5CCC6(CC6)NC5)n4)c3)cnn2C1 (stereo in doubt) [Example 65, 3-amino-6-(3-(5,5-dimethyl-5,6-dihydro-4H-pyrrolo[1,2-b]pyrazol-3-yl)phenyl)-N-(4-azaspiro[2.5]octan-6-yl)pyrazine-2-carboxamide]
Chk1 kinase
  IC50: 10 to 100 nM
Chk2 kinase
  IC50: 10 to 100 nM
[1]; [3]
  IC50: > 100000 nM

## CC1(C)Cc2c(-c3ccc(F)c(-c4cnc(N)c(C(=O)N[C@H]5CCC6(CC6)NC5)n4)c3)cnn2C1 (stereo in doubt) [Example 66, 3-amino-6-(5-(5,5-dimethyl-5,6-dihydro-4H-pyrrolo[1,2-b]pyrazol-3-yl)-2-fluorophenyl)-N-(4-azaspiro[2.5]octan-6-yl)pyrazine-2-carboxamide]
Chk1 kinase
  IC50: > 1000 nM
Chk2 kinase
  IC50: 10 to 100 nM
[1]; [3]
  IC50: ≤ 10000 nM

## Nc1ncc(-c2cc(-c3cnn(CC(F)(F)F)c3)ncc2F)nc1C(=O)N[C@@H]1CNC[C@@H](F)C1 [Example 2, 3-amino-6-(5-fluoro-2-(1-(2,2,2-trifluoroethyl)-1H-pyrazol-4-yl)pyridin-4-yl)-N-((3S,5S)-5-fluoropiperidin-3-yl)pyrazine-2-carboxamide]
Chk1 kinase
  IC50: 100 to 1000 nM
Chk2 kinase
  IC50: 10 to 100 nM
[1]; [2]
  IC50: 10000 to 100000 nM

## Nc1ncc(-c2cc(-c3cnn(CC(F)(F)F)c3)ncc2F)nc1C(=O)N[C@@H]1CNCC(F)(F)C1 [Example 4, (S)-3-amino-N-(5,5-difluoropiperidin-3-yl)-6-(5-fluoro-2-(1-(2,2,2-trifluoroethyl)-1H-pyrazol-4-yl)pyridin-4-yl)pyrazine-2-carboxamide]
Chk1 kinase
  IC50: > 1000 nM
Chk2 kinase
  IC50: 10 to 100 nM
[1]; [4]
  IC50: 48100 nM
[1]; [2]
  IC50: 10000 to 100000 nM
[1]; [5]
  IC50: 3440 nM
[1]; [6]
  IC50: 670 nM

## Nc1ncc(-c2ccnc(-c3cnn(CC(F)(F)F)c3)c2)nc1C(=O)N[C@@H]1CNCC[C@H]1O [Example 14, 3-amino-N-((3R,4R)-4-hydroxypiperidin-3-yl)-6-(2-(1-(2,2,2-trifluoroethyl)-1H-pyrazol-4-yl)pyridin-4-yl)pyrazine-2-carboxamide]
Chk1 kinase
  IC50: 100 to 1000 nM
Chk2 kinase
  IC50: 10 to 100 nM
[1]; [2]
  IC50: > 100000 nM

## Nc1ncc(-c2ccnc(-c3cnn(CC(F)(F)F)c3)c2)nc1C(=O)N[C@@H]1CNC[C@@H](F)C1 [Example 15, 3-amino-N-((3S,5S)-5-fluoropiperidin-3-yl)-6-(2-(1-(2,2,2-trifluoroethyl)-1H-pyrazol-4-yl)pyridin-4-yl)pyrazine-2-carboxamide]
Chk1 kinase
  IC50: 100 to 1000 nM
Chk2 kinase
  IC50: ≤ 10 nM
[1]; [4]
  IC50: 11800 nM
[1]; [2]
  IC50: ≤ 10000 nM
[1]; [5]
  IC50: 2270 nM
[1]; [6]
  IC50: 3050 nM

## Cn1cc(-c2cccc(-c3cnc(N)c(C(=O)N[C@H]4CCCNC4)n3)c2)cn1 [Example 16, (S)-3-amino-6-(3-(1-methyl-1H-pyrazol-4-yl)phenyl)-N-(piperidin-3-yl)pyrazine-2-carboxamide]
Chk1 kinase
  IC50: 10 to 100 nM
Chk2 kinase
  IC50: ≤ 10 nM
[1]; [2]
  IC50: 10000 to 100000 nM

## Cn1cc(-c2cccc(-c3cnc(N)c(C(=O)N[C@@H]4CNC[C@@H](F)C4)n3)c2)cn1 [Example 17, 3-amino-N-((3S,5S)-5-fluoropiperidin-3-yl)-6-(3-(1-methyl-1H-pyrazol-4-yl)phenyl)pyrazine-2-carboxamide]
Chk1 kinase
  IC50: 10 to 100 nM
Chk2 kinase
  IC50: ≤ 10 nM
[1]; [2]
  IC50: 10000 to 100000 nM

## Cn1cc(-c2ccc(F)c(-c3cnc(N)c(C(=O)N[C@H]4CCCNC4)n3)c2)cn1 [Example 18, (S)-3-amino-6-(2-fluoro-5-(1-methyl-1H-pyrazol-4-yl)phenyl)-N-(piperidin-3-yl)pyrazine-2-carboxamide]
Chk1 kinase
  IC50: > 1000 nM
Chk2 kinase
  IC50: 10 to 100 nM
[1]; [2]
  IC50: 10000 to 100000 nM

## Cn1cc(-c2ccc(F)c(-c3cnc(N)c(C(=O)N[C@@H]4CNC[C@@H](F)C4)n3)c2)cn1 [Example 19, 3-amino-6-(2-fluoro-5-(1-methyl-1H-pyrazol-4-yl)phenyl)-N-((3S,5S)-5-fluoropiperidin-3-yl) pyrazine-2-carboxamide]
Chk1 kinase
  IC50: 100 to 1000 nM
Chk2 kinase
  IC50: 10 to 100 nM
[1]; [2]
  IC50: 10000 to 100000 nM

## Nc1ncc(-c2ccnc(-c3cnn(C4CC4)c3)c2)nc1C(=O)N[C@H]1CCCNC1 [Example 20, (S)-3-amino-6-(2-(1-cyclopropyl-1H-pyrazol-4-yl)pyridin-4-yl)-N-(piperidin-3-yl)pyrazine-2-carboxamide]
Chk1 kinase
  IC50: 10 to 100 nM
Chk2 kinase
  IC50: 10 to 100 nM
[1]; [2]
  IC50: 10000 to 100000 nM

## Nc1ncc(-c2ccnc(-c3cnn(CC(F)(F)F)c3)c2)nc1C(=O)N[C@H]1CCCNC1 [Example 21, (S)-3-amino-N-(piperidin-3-yl)-6-(2-(1-(2,2,2-trifluoroethyl)-1H-pyrazol-4-yl)pyridin-4-yl)pyrazine-2-carboxamide]
Chk1 kinase
  IC50: 10 to 100 nM
Chk2 kinase
  IC50: ≤ 10 nM
[1]; [2]
  IC50: 10000 to 100000 nM

## N#CCn1cc(-c2cccc(-c3cnc(N)c(C(=O)N[C@@H]4CNCC[C@H]4O)n3)c2)cn1 [Example 25, 3-amino-6-(3-(1-(cyanomethyl)-1H-pyrazol-4-yl)phenyl)-N-((3R,4R)-4-hydroxypiperidin-3-yl)pyrazine-2-carboxamide]
Chk1 kinase
  IC50: > 1000 nM
Chk2 kinase
  IC50: 10 to 100 nM
[1]; [2]
  IC50: > 100000 nM

## N#CCn1cc(-c2cccc(-c3cnc(N)c(C(=O)N[C@@H]4CNC[C@@H](F)C4)n3)c2)cn1 [Example 26, 3-amino-6-(3-(1-(cyanomethyl)-1H-pyrazol-4-yl)phenyl)-N-((3S,5S)-5-fluoropiperidin-3-yl) pyrazine-2-carboxamide]
Chk1 kinase
  IC50: 100 to 1000 nM
Chk2 kinase
  IC50: 10 to 100 nM
[1]; [2]
  IC50: > 100000 nM

## N#CCn1cc(-c2cccc(-c3cnc(N)c(C(=O)N[C@H]4CCCNC4)n3)c2)cn1 [Example 27, (S)-3-amino-6-(3-(1-(cyanomethyl)-1H-pyrazol-4-yl)phenyl)-N-(piperidin-3-yl)pyrazine-2-carboxamide]
Chk1 kinase
  IC50: 10 to 100 nM
Chk2 kinase
  IC50: 10 to 100 nM
[1]; [2]
  IC50: > 100000 nM

## CC(C)(O)Cn1cc(-c2cccc(-c3cnc(N)c(C(=O)N[C@@H]4CNCC[C@H]4O)n3)c2)cn1 [Example 28, 3-amino-6-(3-(1-(2-hydroxy-2-methylpropyl)-1H-pyrazol-4-yl)phenyl)-N-((3R,4R)-4-hydroxypiperidin-3-yl)pyrazine-2-carboxamide]
Chk1 kinase
  IC50: > 1000 nM
Chk2 kinase
  IC50: ≤ 10 nM
[1]; [2]
  IC50: > 100000 nM

## CC(C)(O)Cn1cc(-c2cccc(-c3cnc(N)c(C(=O)N[C@@H]4CNC[C@@H](F)C4)n3)c2)cn1 [Example 29, 3-amino-N-((3S,5S)-5-fluoropiperidin-3-yl)-6-(3-(1-(2-hydroxy-2-methylpropyl)-1H-pyrazol-4-yl)phenyl)pyrazine-2-carboxamide]
Chk1 kinase
  IC50: 10 to 100 nM
Chk2 kinase
  IC50: ≤ 10 nM
[1]; [2]
  IC50: 10000 to 100000 nM

## CC(C)(O)Cn1cc(-c2cccc(-c3cnc(N)c(C(=O)N[C@H]4CCCNC4)n3)c2)cn1 [Example 30, (S)-3-amino-6-(3-(1-(2-hydroxy-2-methylpropyl)-1H-pyrazol-4-yl)phenyl)-N-(piperidin-3-yl)pyrazine-2-carboxamide]
Chk1 kinase
  IC50: 10 to 100 nM
Chk2 kinase
  IC50: ≤ 10 nM
[1]; [2]
  IC50: > 100000 nM
